Reference: patent US8349768B2, “Use of abscisic acid to alter sensory characteristics of white grapes and wine” (Valent BioSciences Corporation, priority 2007, dated 2013)

Columns and labels:
[1] = system: white wine grape cultivar 'Semillon'; assay: Semillon field experiment: standard maturity berry measurements at harvest; type: in vivo, grapevine; settings: for Baume: Semillon berries at harvest (54 days after veraison); for Titratable Acidity / pH: Semillon berries at harvest
Protocol: (§1) A replicated field experiment was conducted on the white wine grape cultivar ‘Semillon’ in the Riverina growing region of New South Wales, Australia to test the effect of S-ABA on white grapes. Four treatments were tested: Untreated control, 200 ppm S-ABA applied at pre-veraison, 200 ppm S-ABA applied at veraison, and 200 ppm S-ABA applied during the post-veraison period (berry sugar level of 10-11 Baume (18-20° brix)). There were 4 replicates of each treatment and the experiment was laid out in a randomized complete block (RCB) design. S-ABA was applied using a commercial airblast sprayer. S-ABA was applied at a concentration of 200 ppm in a volume of approximately 2000 L/Ha (approximately 200 gallons/A) in order to achieve thorough and complete coverage of the grape bunches. A 20% S-ABA soluble granule formulation was utilized in the experiment. The commercial surfactant Agral was included at a rate of 10 ml/100 L spray. Applications of S-ABA were made at pre-veraison (approximately 3 weeks before veraison or berry softening), veraison, and during the post-veraison period when the grape sugar levels had reached approximately 10-11 Baume (18-20° brix). The 10-11 Baume application took place 36 days after the veraison application. Irrigation, summer pruning, insecticide/fungicides and other routine vine management practices were the same as those practiced commercially by the grower in the adjacent parts of the vineyard.
(§2) Grape samples were harvested at the time of commercial harvest for berry analysis and table wine production. For the standard maturity berry measurements, 12-20 bunches per replicate were sampled. Bunches were randomly selected from both sides of the vines. Samples were analyzed using standard analytical methods used by the grape and wine industry. For additional spectral analyses, samples of 100 berries from each treatment were collected prior to winemaking.

[2] = system: white wine grape cultivar 'Semillon'; assay: Semillon field experiment: spectral analysis of berries at harvest; type: in vivo, grapevine
Protocol: as §1, §2

[3] = system: white wine grape cultivar 'Semillon'; assay: Semillon wine chemical (spectral) analysis; type: in vivo, grapevine
Protocol: as §1
(§3) Wine was produced from the grapes from each of the S-ABA treatments. Small lot primary fermentations were conducted and the wine was bottled. Triplicate ferments of each treatment were conducted using approximately 3×50 kg of grapes. Each replicate ferment contained an equal volume of grapes from each of the four field replicates. Grapes were harvested from the central panels within each replicate. All grapes were harvested from both sides of the vines from these panels. The grapes were transferred immediately to the experimental winery, protected from heat and treated with sulfur dioxide. A standard winemaking protocol used for small-scale replicated primary fermentations was followed. Following the fermentation, the wine was bottled.
(§4) Chemical analyses were conducted on the wines prepared from the various treatments in the field experiment using industry standard analytical methods.

[4] = system: white wine grape cultivar 'Semillon'; assay: Semillon wine sensory analysis: straight judgment of difference test; type: in vivo, grapevine; settings: for Statistically significant (difference from reference wine) / Number of tasters who selected as different from reference wine/Total number of tasters: Semillon wine; for Number of tasters who selected as different from reference wine/Total number of tasters: reference = untreated control
Protocol: as §1, §3
(§5) Sensory analysis was conducted on the treated and untreated wines. A panel consisting of nine experienced wine tasters evaluated the wines for aroma and taste. The wine grape cultivar was identified, but no information regarding the field treatments was identified to the tasters.
A straight judgment of difference test was conducted to determine if the wines were different from the untreated control. […] Therefore, these wines can be considered to be different from the reference wine, thereby implying a treatment effect.

[5] = system: white wine grape cultivar 'Semillon'; assay: Semillon wine descriptive analysis; type: in vivo, grapevine; settings: for Aroma (descriptor): untreated: low aroma, some fruit; for Color (descriptor): untreated: pale straw
Protocol: as §1, §3, §5
A wine descriptive analysis was also conducted for the Semillon wines prepared from the untreated control and from the S-ABA treatments. The panels provided descriptive terms to characterize the aroma, taste and color profile of each wine. The methodology used was based on survey-style collection with a thematic analysis to pull out the most consistent terms (Table 5).

[6] = system: white wine grape cultivar 'Semillon'; assay: Semillon grape tasting panel; type: in vivo, grapevine; settings: Semillon grapes sampled at preharvest and at harvest; panel of three tasters; 200 ppm S-ABA
Protocol: as §1, with “Irrigation, summer pruning, insecticide/fungicides and other routine vine management practices were the same as those practiced commercially by the grower in the adjacent parts of the vineyard.” left out

[7] = system: white wine grape cultivar 'Chardonnay'; assay: Chardonnay field experiment: standard maturity berry measurements at harvest; type: in vivo, grapevine; settings: for Baume: Chardonnay berries at harvest (26 days after veraison); for Titratable Acidity / pH: Chardonnay berries at harvest
Protocol: (§6) A large block unreplicated field experiment was conducted on the white wine grape cultivar ‘Chardonnay’ in the Riverina growing region of New South Wales, Australia to test the effect of S-ABA on white grapes. Three treatments were tested: Untreated control, 200 ppm S-ABA applied at pre-veraison and 200 ppm S-ABA applied at veraison. Each block consisted of 4 rows and covered 0.4 Ha in size. S-ABA was applied using a commercial airblast sprayer. S-ABA was applied at a concentration of 200 ppm in a volume of approximately 1000 L/Ha (approximately 100 gallons/A) in order to achieve thorough and complete coverage of the grape bunches. A 20% S-ABA soluble granule formulation was utilized in the experiment. The commercial surfactant Kendeen 20 was included at a rate of 50 ml/100 L spray. Applications of S-ABA were made at pre-veraison (approximately 3 weeks before veraison or berry softening) and veraison. Irrigation, summer pruning, insecticide/fungicides and other routine vine management practices were the same as those practiced commercially by the grower in the adjacent parts of the vineyard.
as §2, with “Grapes” for “Grape”

[8] = system: white wine grape cultivar 'Chardonnay'; assay: Chardonnay field experiment: spectral analysis of berries at harvest; type: in vivo, grapevine; settings: for A280 / A320 / A420 / Est. of brown pigments / Total Flavonoids / Total Hydroxycinnamates / Total Phenolics: Chardonnay berries at harvest
Protocol: as §6
as §2, with “Grapes” for “Grape”

[9] = system: white wine grape cultivar 'Chardonnay'; assay: Chardonnay wine chemical (spectral) analysis; type: in vivo, grapevine
Protocol: as §6
Wine was produced from the grapes from each of the S-ABA treatments. Small lot primary fermentations were conducted and the wine was bottled. […] ferments of each treatment were conducted using approximately 3×50 kg of grapes. Each replicate ferment contained an equal volume of grapes from entire panels of vines. All grapes were harvest from both sides of the vines from these panels. The grapes were transferred immediately to the experimental winery, protected from heat and treated with sulfur dioxide. A standard winemaking protocol used for small-scale replicated primary fermentations was followed. Following the fermentation, the wine was bottled.
as §4

[10] = system: white wine grape cultivar 'Chardonnay'; assay: Chardonnay wine sensory analysis: straight judgment of difference test; type: in vivo, grapevine; settings: All Chardonnay wines from the S-ABA treatments; ten tasters; with statistical significance
Protocol: as §6
(§7) Wine was produced from the grapes from each of the S-ABA treatments. […]
(§8) Sensory analysis was conducted on the S-ABA-treated and untreated wines. A panel consisting of ten experienced wine tasters evaluated the wines for aroma and taste. […]

[11] = system: white wine grape cultivar 'Chardonnay'; assay: Chardonnay wine descriptive analysis; type: in vivo, grapevine
Protocol: as §6, §7, §8

[12] = system: white wine grape cultivar 'Chardonnay'; assay: Chardonnay grape tasting panel; type: in vivo, grapevine; settings: Chardonnay grapes sampled at preharvest and at harvest; panel of two tasters; 200 ppm S-ABA
Protocol: as §6

grapevines = settings: application of S-ABA; During and Broquedis 1980; cited from earlier work
red grapes = settings: exogenous application to red grapes prior to harvest; literature; cited from earlier work
grapes = settings: S-ABA application on grapes; Han et al. 1996; cited from earlier work
[13] = 200 ppm S-ABA foliar spray applied at pre-veraison
[14] = 200 ppm S-ABA foliar spray applied at veraison
[15] = 200 ppm S-ABA applied at pre-veraison
[16] = 200 ppm S-ABA applied at veraison
[17] = 200 ppm S-ABA applied post-veraison (11 Baume)
[18] = Semillon berries at harvest, 200 ppm S-ABA applied at pre-veraison
[19] = Semillon berries at harvest, 200 ppm S-ABA applied at veraison
[20] = Semillon berries at harvest, 200 ppm S-ABA applied post-veraison (11 Baume)
[21] = spectral analysis, 200 ppm S-ABA treatments

Substance: (S)-5-(1-hydroxy-2,6,6,-trimethyl-4-oxo-2-cyclohexen-1-yl)-3-methyl-(2Z,4E)-pentadienoic acid [S-ABA]
- Baume [1, 13]: 11.6
- Baume [1, 14]: 11.7
- Baume ([1]; 200 ppm S-ABA foliar spray applied post-veraison (11 Baume)): 11.6
- Titratable Acidity [1, 15]: 4.5
- pH [1, 15]: 3.57
- Titratable Acidity [1, 16]: 4.5
- pH [1, 16]: 3.56
- Titratable Acidity [1, 17]: 4.0
- pH [1, 17]: 3.61
- Effect on berry sugar content (Baume), pH, titratable acidity or bunch weight ([1]; Semillon, 200 ppm S-ABA treatments): did not consistently affect
- A280 [2, 18]: 6.62
- A320 [2, 18]: 2.642
- A420 [2, 18]: 0.465
- Est. of brown pigments [2, 18]: 0.47 a.u.
- Total Flavonoids [2, 18]: 1.80 a.u.
- Total Hydroxycinnamates [2, 18]: 1.24 a.u.
- Total Phenolics [2, 18]: 2.62 a.u.
- A280 [2, 19]: 6.85
- A320 [2, 19]: 2.713
- A420 [2, 19]: 0.471
- Est. of brown pigments [2, 19]: 0.47 a.u.
- Total Flavonoids [2, 19]: 1.98 a.u.
- Total Hydroxycinnamates [2, 19]: 1.31 a.u.
- Total Phenolics [2, 19]: 2.85 a.u.
- A280 [2, 20]: 6.47
- A320 [2, 20]: 2.59
- A420 [2, 20]: 0.461
- Est. of brown pigments [2, 20]: 0.46 a.u.
- Total Flavonoids [2, 20]: 1.68 a.u.
- Total Hydroxycinnamates [2, 20]: 1.19 a.u.
- Total Phenolics [2, 20]: 2.47 a.u.
- Effect on phenolic composition of the berries ([2]; Semillon berries at harvest, 200 ppm S-ABA treatments): tended to increase
- Total phenolics, hydroxycinnamates, total flavonoids and estimated brown pigments (chemical analysis) ([2]; Semillon berries, 200 ppm S-ABA treatments vs untreated): some differences
- Total Hydroxycinnamates [3, 15]: 0.8700 a.u.
- Total Hydroxycinnamates ([3]; 200 ppm S-ABA applied at veraison, untreated control vs. veraison P = 0.0604): 0.9033 a.u.
- Total Hydroxycinnamates [3, 17]: 0.8267 a.u.
- Levels of hydroxycinnamates in S-ABA treated wines [3, 21]: higher levels of hydroxycinnamates
- Judgment of difference from the reference wine (untreated control) ([4]; All Semillon wines from the S-ABA treatments, nine tasters, with statistical significance): judged to be different from the reference wine
- Statistically significant (difference from reference wine) [4, 15]: Yes
- Number of tasters who selected as different from reference wine/Total number of tasters [4, 15]: 8/9
- Statistically significant (difference from reference wine) [4, 16]: Yes
- Number of tasters who selected as different from reference wine/Total number of tasters [4, 16]: 8/9
- Statistically significant (difference from reference wine) [4, 17]: Yes
- Number of tasters who selected as different from reference wine/Total number of tasters [4, 17]: 8/9
- Taste (descriptor) ([5]; 200 ppm S-ABA applied at pre-veraison, untreated: citrus, acidic): Much more acidic
- Aroma (descriptor) [5, 15]: More intense fruit
- Color (descriptor) [5, 15]: Pale straw
- Aroma (descriptor) [5, 16]: More intense fruit
- Aroma (descriptor) [5, 17]: More intense fruit
- Color (descriptor) [5, 17]: Pale straw
- Effect on fruit aroma and acidic taste of the wine ([5]; 200 ppm S-ABA treatments): increased or intensified
- Flavor of S-ABA treated grapes vs untreated grapes [6]: notable differences in flavor
- Baume [7, 13]: 14.3
- Baume [7, 14]: 14.4
- Titratable Acidity [7, 15]: 6.2
- pH [7, 15]: 3.73
- Titratable Acidity [7, 16]: 6.9
- pH [7, 16]: 3.60
- Effect on berry sugar content (Baume), pH, titratable acidity or bunch weight ([7]; Chardonnay, 200 ppm S-ABA treatments): did not consistently affect
- A280 [8, 15]: 17.37
- A320 [8, 15]: 3.53
- A420 [8, 15]: 0.530
- Est. of brown pigments [8, 15]: 0.530 a.u.
- Total Flavonoids [8, 15]: 11.96 a.u.
- Total Hydroxycinnamates [8, 15]: 2.13 a.u.
- Total Phenolics [8, 15]: 13.37 a.u.
- A280 [8, 16]: 14.07
- A320 [8, 16]: 3.38
- A420 [8, 16]: 0.567
- Est. of brown pigments [8, 16]: 0.567 a.u.
- Total Flavonoids [8, 16]: 8.76 a.u.
- Total Hydroxycinnamates [8, 16]: 1.98 a.u.
- Total Phenolics [8, 16]: 10.07 a.u.
- Total phenolics, hydroxycinnamates, total flavonoids and estimate of brown pigments (chemical analysis) ([8]; Chardonnay berries, 200 ppm S-ABA treatments vs untreated): some differences
- Total Hydroxycinnamates [9, 15]: 3.14 a.u
- Total Phenolics [9, 15]: 2.55 a.u
- Total Hydroxycinnamates [9, 16]: 3.19 a.u
- Total Phenolics [9, 16]: 2.97 a.u
- Balance of hydroxycinnamates and phenolics in S-ABA treated wines [9, 21]: different balance of hydroxycinnamates and phenolics
- Judgment of difference from the reference wine (untreated control) [10]: judged to be different from the reference wine
- Descriptive characteristics compared to the Untreated [11, 15]: More intense aroma, slightly more mineral and bitterness
- Effect on fruit aroma and acidic taste in the wine ([11]; 200 ppm S-ABA treatments): increased or intensified
- Flavor of S-ABA treated grapes vs untreated grapes [12]: notable differences in flavor
- Stomatal resistance in grapevines (grapevines): increase stomatal resistance
- Accumulation of anthocyanins and red color of grape berry skins (red grapes): increase the accumulation of anthocyanins and increase the red color
- Berry and cluster weight (grapes): increase berry and cluster weight
